Results on 10 compounds are retold here after publication PMC7288026, “Novel Class of Chalcone Oxime Ethers as Potent Monoamine Oxidase-B and Acetylcholinesterase Inhibitors” (Molecules, 2020).

The target of test [1] is T1, recombinant hMAO-A (Homo sapiens, UniProt P21397).
T1 construct: purchased Sigma-Aldrich
T1 sequence (P21397 1-527): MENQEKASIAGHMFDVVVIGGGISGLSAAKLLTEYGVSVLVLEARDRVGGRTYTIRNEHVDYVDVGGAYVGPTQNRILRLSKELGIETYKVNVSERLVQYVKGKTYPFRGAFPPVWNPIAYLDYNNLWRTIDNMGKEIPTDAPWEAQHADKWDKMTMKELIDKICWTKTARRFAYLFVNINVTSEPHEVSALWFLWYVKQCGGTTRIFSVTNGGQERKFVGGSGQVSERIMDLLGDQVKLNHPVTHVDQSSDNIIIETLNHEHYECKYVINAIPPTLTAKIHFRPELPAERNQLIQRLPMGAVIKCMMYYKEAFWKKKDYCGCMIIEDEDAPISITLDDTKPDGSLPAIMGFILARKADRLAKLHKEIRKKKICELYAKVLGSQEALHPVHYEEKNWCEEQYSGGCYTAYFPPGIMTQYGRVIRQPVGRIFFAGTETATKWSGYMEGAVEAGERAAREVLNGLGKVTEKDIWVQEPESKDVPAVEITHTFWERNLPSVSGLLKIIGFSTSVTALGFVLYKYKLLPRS
Nature of the test: MAO-A inhibition assay (kynuramine substrate). It counts as biochemical. As to conditions: for remaining activity at 1 µM: compound at 1.0 µM, mean ± standard error of duplicate experiments, read-out: Residual Activity (%) MAO-A (1.0 µM); for IC50: mean ± standard error of duplicates, reference compounds after 30 min preincubation with enzyme. As for the experimental part: Recombinant hMAO-A and hMAO-B activities were assayed while using kynuramine (0.06 mM) and benzylamine (0.3 mM) as substrates, respectively, as described previously. […] AChE activity was measured using Type VI-S from Electrophorus electricus in the presence of 0.5 mM 5,5’-dithiobis(2-nitrobenzoic acid) and 0.5 mM acetylthiocholine iodide, as described previously. Enzymes and chemicals were purchased from Sigma–Aldrich (St. Louis, MO, USA).
(§1) AChE inhibitory activities were also determined, except at a concentration of 10 µM. […] Kinetic experiments were carried out at five substrate and three inhibitor concentrations.

The target of test [2] is T2, MAO-B (Homo sapiens, UniProt P27338).
T2 construct: purchased Sigma-Aldrich
T2 sequence (P27338 1-520): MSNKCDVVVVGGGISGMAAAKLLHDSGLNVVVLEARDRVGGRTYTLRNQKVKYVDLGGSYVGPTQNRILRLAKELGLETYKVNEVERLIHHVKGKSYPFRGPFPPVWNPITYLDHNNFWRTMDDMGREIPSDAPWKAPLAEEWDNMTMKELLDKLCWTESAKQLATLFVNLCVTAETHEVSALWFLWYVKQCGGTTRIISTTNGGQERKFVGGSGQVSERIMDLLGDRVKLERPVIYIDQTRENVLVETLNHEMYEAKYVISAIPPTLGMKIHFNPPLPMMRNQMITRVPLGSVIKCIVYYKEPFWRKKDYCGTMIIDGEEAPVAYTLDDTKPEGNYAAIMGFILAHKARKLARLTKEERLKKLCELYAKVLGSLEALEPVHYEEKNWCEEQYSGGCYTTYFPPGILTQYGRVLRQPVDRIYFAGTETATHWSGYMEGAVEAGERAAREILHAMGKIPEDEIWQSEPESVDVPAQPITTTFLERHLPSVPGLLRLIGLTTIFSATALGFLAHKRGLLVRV
Description: Kinetics of MAO-B inhibition (Lineweaver-Burk and secondary plots). The test is classed as biochemical. To be noted: for Mode of MAO-B inhibition: Lineweaver-Burk plots; for Ki: competitive inhibition, secondary plots of slopes vs. inhibitor concentration. As for the experimental part: as §1

Test [3] deals with T2, MAO-B. Description: biochemical. As to conditions: for SI (selectivity index, ratio of IC50 MAO-A to MAO-B): MAO-A vs. MAO-B IC50 ratio; for IC50: mean ± standard error of duplicates, reference compounds after 30 min preincubation with enzyme, read-out: IC50 (µM) MAO-B; for remaining activity at 1 µM: read-out: Residual Activity (%) MAO-B (1.0 µM). On the procedure:
Recombinant hMAO-A and hMAO-B activities were assayed while using kynuramine (0.06 mM) and benzylamine (0.3 mM) as substrates, respectively, as described previously. […] AChE activity was measured using Type VI-S from Electrophorus electricus in the presence of 0.5 mM 5,5’-dithiobis(2-nitrobenzoic acid) and 0.5 mM acetylthiocholine iodide, as described previously. Enzymes and chemicals were purchased from Sigma–Aldrich (St. Louis, MO, USA). […]

The target of test [4] is T2, MAO-B. Description: Reversibility of MAO-B inhibition by dialysis. The test is classed as biochemical. As to conditions: for Reversibility of MAO-B inhibition: dialysis method. An excerpt:
Relative activities of undialyzed (AU) and dialyzed (AD) samples were used to determine the reversibilities.

For test [5], the target named is T3, AChE (Type VI-S from Electrophorus electricus) (Electrophorus electricus, UniProt O42275).
T3 construct: purchased Sigma-Aldrich Type VI-S
T3 sequence (O42275 24-633): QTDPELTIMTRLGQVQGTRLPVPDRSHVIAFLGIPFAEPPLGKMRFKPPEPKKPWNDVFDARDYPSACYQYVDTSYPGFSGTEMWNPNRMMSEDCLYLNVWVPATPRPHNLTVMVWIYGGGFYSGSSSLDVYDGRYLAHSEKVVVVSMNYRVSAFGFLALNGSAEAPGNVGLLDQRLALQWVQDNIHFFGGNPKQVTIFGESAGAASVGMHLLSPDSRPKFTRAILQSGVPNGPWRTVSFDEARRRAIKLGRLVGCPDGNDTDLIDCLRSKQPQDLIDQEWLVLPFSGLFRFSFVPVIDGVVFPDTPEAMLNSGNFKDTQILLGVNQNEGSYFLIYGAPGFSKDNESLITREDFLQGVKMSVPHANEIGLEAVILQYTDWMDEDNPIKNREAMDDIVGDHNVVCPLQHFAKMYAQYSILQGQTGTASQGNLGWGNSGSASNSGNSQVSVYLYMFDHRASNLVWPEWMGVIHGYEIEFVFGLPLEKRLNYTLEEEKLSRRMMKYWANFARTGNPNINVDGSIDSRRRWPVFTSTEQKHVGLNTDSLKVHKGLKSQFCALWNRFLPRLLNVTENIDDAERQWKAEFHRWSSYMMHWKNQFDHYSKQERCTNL
Description: AChE inhibition assay (DTNB / acetylthiocholine iodide). The test is classed as biochemical. As to conditions: for remaining activity at 10 µM / Residual Activity (%) AChE (10 µM): compound at 10 µM, mean ± standard error of duplicate experiments; for remaining activity at 10 µM: read-out: Residual Activity (%) AChE (10 µM). On the procedure: AChE activity was measured using Type VI-S from Electrophorus electricus in the presence of 0.5 mM 5,5’-dithiobis(2-nitrobenzoic acid) and 0.5 mM acetylthiocholine iodide, as described previously. Enzymes and chemicals were purchased from Sigma–Aldrich (St. Louis, MO, USA).
Kinetic experiments were carried out at five substrate and three inhibitor concentrations.

Test [6] has as its target T2, MAO-B. As to conditions: read-out: IC50 MAO-B of earlier chalcone derivative; cited from earlier work.

Broadly, the IC50 is the concentration that gives 50% inhibition. Usually Ki stands for a measure of affinity in units of concentration, obtained from inhibition or displacement. A low value points to higher affinity.

Values joined by “and” are separate entries in the source; they are usually repeats but may differ in a detail not shown here. Identical values can stand only once. Like-named read-outs stand apart in the source and are kept apart here.

Consider `O=C(/C=C/c1ccc(ON=C2CCCCC2)cc1)c1ccc(F)cc1` [COE-6], for which, in test [1], the remaining activity at 1 µM stood at 76.8 ± 3.98% and the IC50 was 4 ± 0.021 µM. Further, in test [2], the “Mode of MAO-B inhibition” value is reported as “competitively inhibited” and the Ki worked out at 7.5 nM. In test [3], the “MAO-B potency relative to clorgyline (times more potent)” value is 105.6 times and 105 times; the “MAO-B potency relative to lazabemide (times more potent)” value is 2.33 times and 2.3 times; the “MAO-B potency relative to pargyline (times more potent)” value turned out to be 1.1 times; the “SI (selectivity index, ratio of IC50 MAO-A to MAO-B)” value is 222.2. Moreover, in test [3], the 50% inhibitory concentration (IC50) was 0.02 µM and 0.018 µM; the remaining activity at 1 µM was -1.06 ± 1.84%. For the same compound, in test [4], the “Reversibility of MAO-B inhibition” value was “reversible inhibitors”. Further, in test [4] (~2 × IC50 of inhibitor, 30 min preincubation, after dialysis), the “Relative MAO-B activity, dialyzed (AD)” value is 81.1%. Besides, in test [4] (~2 × IC50 of inhibitor, 30 min preincubation, undialyzed), the “Relative MAO-B activity, undialyzed (AU)” value is 19.7%. Further, in test [5], the IC50 was more than 40000 nM and the remaining activity at 10 µM was 79.4 ± 3.97%.

`COc1ccc(/C=C/C(=N/Oc2ccc(C(C)=O)cc2)c2ccc(OC)cc2)cc1` [COE-17]: in test [1], the remaining activity at 1 µM amounted to 80.9 ± 2.01% and the IC50 is more than 10 µM. Also, in test [3], the “SI (selectivity index, ratio of IC50 MAO-A to MAO-B)” value was more than 13.9; the IC50 was found to be 0.72 ± 0.015 µM; the remaining activity at 1 µM amounted to 17.6 ± 2.77%. In test [5], the IC50 was more than 40000 nM and the remaining activity at 10 µM amounted to 80.3 ± 1.39%.

Take `COC(=O)c1ccc(O/N=C(/C=C/c2ccc(OC)cc2)c2ccc(OC)cc2)cc1` [COE-18]: in test [1], the remaining activity at 1 µM was 88.1 ± 0.99% and the IC50 is more than 10 µM. For the same compound, in test [3], the “SI (selectivity index, ratio of IC50 MAO-A to MAO-B)” value was more than 11.8; the IC50 was 0.85 ± 0.12 µM; the remaining activity at 1 µM amounted to 33.3 ± 0.52%. In test [5], it took 10600 ± 260 nM to reach half-maximal inhibition (IC50) and the remaining activity at 10 µM was determined as 58.3 ± 5.3%.

On to `COc1ccc(/C=C/C(=N/Oc2ccc(/C=C/C(=O)c3ccccc3)cc2)c2ccc(OC)cc2)cc1` [COE-19], for which, in test [1], the remaining activity at 1 µM came to 85.3 ± 0.99% and the IC50 was more than 10 µM. In addition, in test [3], the “SI (selectivity index, ratio of IC50 MAO-A to MAO-B)” value is reported as more than 31.3; the IC50 is 0.32 ± 0.015 µM; the remaining activity at 1 µM was 19.2 ± 3.06%. In test [5], the IC50 turned out to be 5350 ± 680 nM, the “Residual Activity (%) AChE (10 µM)” value is listed as 39.0 ± 0.45% and the remaining activity at 10 µM is less than 50%.

As to `COc1ccc(/C=C/C(=N/Oc2ccc(/C=C/C(=O)c3ccc(OC)cc3)cc2)c2ccc(OC)cc2)cc1` [COE-20], in test [1], the remaining activity at 1 µM amounted to 89.7 ± 4.51% and the half-maximal inhibitory concentration (IC50) was more than 10 µM. Further, in test [3], the “SI (selectivity index, ratio of IC50 MAO-A to MAO-B)” value is more than 28.6; the IC50 turned out to be 0.35 ± 0.011 µM; the remaining activity at 1 µM came out at 21 ± 0.42%. In test [5], half-maximal inhibition (IC50) was put at 11200 ± 1330 nM and the remaining activity at 10 µM came out at 60.6 ± 5.74%.

As for `COc1ccc(C(/C=C/c2ccccc2)=N\Oc2ccc(/C=C/C(=O)c3ccc(C)cc3)cc2)cc1` [COE-21], in test [1], the remaining activity at 1 µM was 85.8 ± 1.47% and the IC50 is 15.9 ± 0.59 µM. Further, in test [3], the “SI (selectivity index, ratio of IC50 MAO-A to MAO-B)” value turned out to be 441.7; the 50% inhibitory concentration (IC50) was 0.036 ± 0.0019 µM; the remaining activity at 1 µM is -2.19 ± 0.08%. In test [5], inhibition was half-maximal at 9650 ± 1200 nM (IC50), the “Residual Activity (%) AChE (10 µM)” value was determined as 49.4 ± 2.90% and the remaining activity at 10 µM is less than 50%.

As for `COc1ccc(/C=C/C(=N/Oc2ccc(/C=C/C(=O)c3ccc(F)cc3)cc2)c2ccc(OC)cc2)cc1` [COE-22], the remaining activity at 1 µM in test [1] was found to be 81.8 ± 0.99%. In addition, in test [2], the “Mode of MAO-B inhibition” value was “competitively inhibited” and the Ki worked out at 10 nM. In test [3], the IC50 stood at 0.028 ± 0.0042 µM and the remaining activity at 1 µM stood at 5.47 ± 0.21%. Also, in test [4], the “Reversibility of MAO-B inhibition” value is “reversible inhibitors”. In addition, in test [5], the remaining activity at 10 µM is less than 50%.

Take `COc1ccc(/C=C/C(=O)c2ccc(O/N=C(/C=C/c3ccc(OC)cc3)c3ccc(OC)cc3)cc2)cc1` [COE-23]: in test [1], the remaining activity at 1 µM turned out to be 85.1 ± 4.01% and the IC50 is more than 10 µM. In addition, in test [3], the “SI (selectivity index, ratio of IC50 MAO-A to MAO-B)” value was more than 66.7; the IC50 was 0.15 ± 0.021 µM; the remaining activity at 1 µM was 25.8 ± 4.78%. In addition, in test [5], the IC50 is 9160 ± 21 nM and the remaining activity at 10 µM is 57.3 ± 1.34%.

Take `COc1ccc(C(/C=C/c2ccccc2)=N\Oc2ccc(C(=O)/C=C/c3cc(OC)c(OC)c(OC)c3)cc2)cc1` [COE-24]: in test [1], the remaining activity at 1 µM came out at 88.9 ± 0.98% and the IC50 is more than 10 µM. Also, in test [3], the IC50 is more than 10 µM and the remaining activity at 1 µM was 87.4 ± 2.81%. Besides, in test [5], the IC50 was more than 40000 nM and the remaining activity at 10 µM was 72.5 ± 2.91%.

For `CCO/C(C)=N/Oc1ccc(/C=C/C(=O)c2ccc(F)cc2)cc1` [L3, ethyl (1E)-N-{4-[(1E)-3-(4-fluorophenyl)-3-oxoprop-1-en-1-yl]phenoxy}ethanimidate], the IC50 in test [6] is 53 nM.
